According to ChEMBL document CHEMBL1123444, “Analgesic actions of 3-substituted 6-tert-butyl-1,2,3,4,5,6-hexahydro-2,6-methano-3-benzazocines” (1986):
Active and inactive are the calls of the source. No cut-off for these calls is given here.

What was measured:
Mus musculus [1] = assay: Compound was evaluated for analgesic activity using mouse hotplate test at 7.1-13.8 mg/kg dose; assay type: functional
Mus musculus [2] = assay: Compound was evaluated for analgesic activity using mouse hotplate test, at the dose 50 mg/kg; Inactive; assay type: functional, organism-based; parameters: dose 50 mg/kg
Mus musculus [3] = species: Mus musculus; assay: Compound was evaluated for analgesic activity using mouse hotplate test; assay type: functional
Mus musculus [4] = assay: Compound was evaluated for analgesic activity using mouse hotplate test, at the dose 20 mg/kg; Inactive; assay type: functional, organism-based; parameters: dose 20 mg/kg

CC(C)(C)C12CCN(CCc3ccccc3)C(Cc3ccccc31)C2 (stereo not given)
ED50 (Mus musculus [1]): 9.9 mg/kg

C=CCN1CCC2(C(C)(C)C)CC1Cc1ccccc12 (stereo not given)
ED50 (Mus musculus [2]): inactive

CN1CC[C@]23c4c5ccc(O)c4O[C@H]2[C@@H](O)C=C[C@H]3[C@H]1C5.CN1CC[C@]23c4c5ccc(O)c4O[C@H]2[C@@H](O)C=C[C@H]3[C@H]1C5.O=S(=O)(O)O
ED50 (Mus musculus [3]): 1.2 mg/kg

CN1CCC2(C(C)(C)C)CC1Cc1ccccc12 (stereo not given)
ED50 (Mus musculus [3]): 14.1 mg/kg

CC(C)(C)C12CCN(CC3CC3)C(Cc3ccccc31)C2 (stereo not given)
ED50 (Mus musculus [4]): inactive
